Like-named read-outs stand apart in the source and are kept apart here.
Assays:
Caco-2 cells = experiment: CCK8 colorimetric cytotoxicity assay; format: cell-based; details: concentration below 100 μM, 24 h, p > 0.05
Method: A standard CCK8 colorimetric assay was employed for the evaluation of cytotoxic activity of compound 6238-0047 using 96-well flat bottomed microplates. Dulbecco’s Modified Eagle Medium (GIBCO) with 10% FBS (fetal bovine serum, FBS, Gibco) and 1% NEAA was used for the culturing of Caco-2 cells (ATCC, Manassas, VA, USA), and the medium was supplemented with 100 μg/mL of streptomycin and 100 IU/mL of penicillin. The medium was kept in 5% CO2 and incubated at 37 °C. The exponentially grown cells were harvested, counted using a hemocytometer and diluted with the medium. The cell culture was diluted to a density of 1 × 10^5 cells/mL and transferred into a 96-well plate with 135 μL or […]. The medium was incubated for 24 h for cell attachment. Following this, 15 μL of compounds with different final concentrations of 1, 10, 25, 50, and 100 μM in the experimental group and fresh medium as a control group, were added to a plate with five replicates for each. After 24 h of incubation at 37 °C and kept in 5% CO2, 15 μL of CCK8 was added to each well and after 2 h the absorbance was measured at 450 nm using a microplate reader. The formula for calculating the relative cell viability was as follows:Relative cell viability (%) = absorbance of experimental group/absorbance of control group × 100%

[1] = design: method as in PMID 19050709; details: human patients; cited from earlier work
ruminal microbiota [2] = experiment: Ruminal microbial fermentation in vitro (six generations): urea and NH3-N; format: cell-based, rumen fluid of Chinese Holstein dairy cows; details: 100 μM compound, 24 h, p < 0.01
Method: Seven solutions were prepared for the anaerobic media as solution A (3 g/L K2HPO4), solution B (0.6 g/L CaCl2, 3 g/L K2HPO4, 6 g/L NaCl, 0.6 g/L MgSO4·7H2O), solution C (6 g/L K2HPO4), solution D (1.6 g/L CaCl2·2H2O, 6 g/L K2HPO4, 12 g/L NaCl, 2.5 g/L MgSO4·7H2O), trace element solution (300 mg/L H3BO3, 100 mg/L ZnSO4·7H2O, 30 mg/L MnCl2·4H2O, 20 mg/L CoCl2·6H2O, 30 mg/L Na2MoO4·2H2O, 10 mg/L Na2SeO3, 20 mg/L NiCl2, 10 mg/L CuCl2·2H2O, 150 mg/L FeCl2·4H2O), volatile fatty acid (VFA) mixed solution (17 mL acetic acid, 6 mL propionic acid, 4 mL butyric acid, 1 mL n-valeric acid, 1 mL isovaleric acid, and 1 mL isobutyric acid), and hemin solution, prepared by diluting 50 mg of Haemon in NaOH (1 N solution) and made up to 100 mL with distilled water. Each liter of anaerobic media contained 30 mL of autoclaved rumen fluid supernatant, 0.5 g of glucose, 0.5 g of soluble starch, 0.5 g of cellobiose, 0.5 g of maltose, 0.5 g of […], 0.5 g of tripticase, 0.5 g of yeast extract, 8 g of NaHCO3, 0.1 mL of trace elements solution, 15 mL solution A, 15 mL solution B, 0.5 g of cysteine hydrochloride, 10 mL of hemin solution, 3.1 mL of VFA mixed solution, and 1 mg resazurin. The anaerobic urea solution was prepared using an anaerobic glove box, by dissolving 2.5 g of urea in a 50 mL anaerobic diluent. This diluent consisted of 3.8 mL of salt solution C, 3.8 mL of salt solution D, 5 mL of 8% sodium Na2CO3, 1 mL of 0.1% resazurin, 0.5 g of cysteine hydrochloride dissolved in distilled water and made up to 1000 mL and distributed into 50 mL anaerobic bottles. All the anaerobic bottles were sterilized by autoclave. Prior to the inoculation, fresh frozen rumen fluid samples, pretreated as described previously, were removed from the freezer, thawed, homogenized, and used immediately. […] Chromatographic gradients were referenced to the paper.

H. pylori urease = tested on: H. pylori urease; design: method as in PMID 23567958; details: cited from earlier work
ruminal microbial urease = experiment: Urease inhibition assay (Berthelot alkaline phenol-hypochlorite method); format: biochemical, rumen bacteria of Chinese Holstein dairy cows; details: ruminal microbial urease, 37 °C, 30 min, pH 7.5
Method: Rumen fluid samples were collected from five Chinese Holstein dairy cows with permanent rumen fistula 3 h after feeding a total mixed ration in the morning. All the operations were conducted in accordance with the protocol approved by the Animal Care and Use Committee for Livestock of the Institute of Animal Sciences, Chinese Academy of Agricultural Sciences (Permit Number: IAS2019-14, Permit Date: 22-03-2019). All rumen fluid samples were filtered by a six layer sterilized medical gauze and mixed in a sterilized beaker before being evenly distributed into different 50 mL tubes and stored in liquid nitrogen. The deforested samples were centrifuged at 12,000× g for 10 min at 4 °C, then the supernatant was removed from the tube. The remaining sediments were resuspended in a HEPES buffer solution (pH 7.5, 50 mM) and then centrifuged at 12,000× g for 10 min at 4 °C. The supernatant was discarded and the remaining rumen bacteria were collected and stored at −80 °C for later urease extraction. All the sample handing processes were conducted on an ice bath. […]
In vitro urease inhibition screening assays were conducted to further narrow the virtual screened compounds for further IC50 determination and kinetic characterization. […] The ammonia that was produced was measured using 50 μL of a phenol reagent containing 10.0 g/L phenol and 50 mg/L of sodium nitroprusside, and 50 μL of alkali reagent containing 5 g/L sodium hydroxide and 8.4 mL/L of sodium hypochlorite solution, at 37 °C for 30 min. The absorbance of each well was measured at 625 nm by a micro plate spectrophotometer (Thermo Scientific Varioskan Flash G-282, Thermo Scientific, Waltham, MA, USA). The endogenous nitrogen (blank) was measured by adding a 70 μL HEPES buffer (pH 7.5, 50 mM) containing no urea and 20 μL methanol solution in the first 30 min of the reaction mixture. The 100% initial activity was determined by adding a 15 μL methanol solution in the first 30 min of the reaction mixture. […]

ruminal microbiota [3] = details: cited from earlier work
jack bean urease = tested on: jack bean urease; design: method as in PMID 17418881; details: cited from earlier work
rumen microbiota = tested on: rumen microbiota; design: method as in PMID 10682821; details: cows with permanent rumen fistula, cited from earlier work

Row | Compound | Relative cell viability of Caco-2 cell culture (Caco-2 cells) | Patients with dermatological, neurological or hematological issues necessitating discontinuation of therapy [1] | Amount of urea degradation vs control group (ruminal microbiota [2]; 16.65 mM urea) | NH3-N concentration / production vs control group (ruminal microbiota [2]) | IC50 (H. pylori urease) [µM] | IC50 (ruminal microbial urease) [µM] | AHA degradation (ruminal microbiota [3]) [%] | IC50 (jack bean urease) [µM] | Ruminal ammonia nitrogen production vs control group (rumen microbiota; fifteenth day of treatment) | Ruminal ammonia nitrogen production vs control group (rumen microbiota; second day of treatment)
1 | CC(=O)NO [AHA, acetohydroxamic acid, reference compound] | no significant influence | more than 20% | significantly lowered the amount of urea degradation | significantly lower than the control group | 18.2 | 158 | 100 | 60 | – | –
2 | CCCCNP(N)(N)=S [NBPT, N-(n-butyl) thiophosphoric triamide] | – | – | – | – | – | – | – | – | tended to approach the control group | lower than that of the control group

From PMC7503308, “A Novel Urease Inhibitor of Ruminal Microbiota Screened through Molecular Docking” (International Journal of Molecular Sciences, 2020)
